Source: article PMC9767416, “Discovery of small molecule mechanistic target of rapamycin inhibitors as anti-aging and anti-cancer therapeutics” (Frontiers in Aging Neuroscience, 2022)
Where two headings read alike, the source gives them in different places.

Tests used:
C57BL/6 (B6) male mice [1] = test: Histopathological analysis of spleen, kidney and liver; type: in vivo
Method: Spleen, kidney, and liver tissue samples from the control and treated animals were fixed in 4% formaldehyde and embedded into paraffin. The analysis and evaluation were performed at the Czech Centre for Phenogenomics, Institute of Molecular Genetics of the CAS, Vestec, using Leica ASP6025 automatic vacuum tissue processor for tissue processing, Leica EG1150 H + C embedding station for embedding, and Leica RM2255 rotary microtome for sectioning (2 μm sections). Standard haematoxylin and eosin (HE) descriptive histopathological staining was done using Leica ST5020 + CV5030 stainer and coverslipped.

[2] = tested on: mTORC1 substrate p70 S6 kinase (Thr389 phosphorylation); test: Immunoblot of phospho-p70 S6K (Thr389), mTORC1 activity in cells; type: cell-based, human; conditions: for effect on Thr389 S6K phosphorylation / effect on p70 S6K phosphorylation: 100 μM
[3] = Dissociation constants by spectrophotometric titration; type: physicochemical; conditions: ultrapure water, 20°C
Method: The spectrophotometric titration was used for dissociation constants’ determination, utilizing spectrophotometer Agilent Cary-60 (Agilent Technologies, CA, USA), pH meter WTW InoLab_IDS Multi 9430 (WTW, Czech Republic), and pH electrode SenTix® Mic (WTW, Czech Republic). Data were analyzed by GraphPadPrism 8.0 software (GraphPad Software, CA, USA). The analyzed samples were prepared by adding 20 μL of compound stock solution (2 mg/mL) and 20 μL of 0.1 M hydrochloric acid into the cuvette with ultrapure water (total volume 3.5 mL). The samples were titrated by 0.1 M sodium hydroxide at 20°C while acquiring absorption spectra (190–500 nm) at different pH values. Absorbance at the chosen wavelength was plotted as a function of pH. The inflection point in the given plot was used for pKa value determination.

[4] = tested on: pro-inflammatory cytokines of SASP; test: Secretion of pro-inflammatory cytokines (SASP) by senescent cells; type: cell-based, human; conditions: 50 μM, 24 h
Method: To determine the secretion of selected inflammatory cytokines into culture media, cell cultures were exposed to tested compounds (50 μM) for 24 h. Then the culture medium was removed, cells were washed three times with 1 mL PBS, and a fresh medium without FBS was added for 24 h. Detection of cytokines in conditioned culture media was done by Human Inflammation 11-Plex Panel: IFNγ, IL-1α, IL-1β, IL-6, IL-8, IL-10, IL-12p70, IL-27, IP-10, MCP-1, and TNFα (AimPlex Biosciences, Inc.) using a BD FACSVerseTM flow cytometer (BD Biosciences, Franklin Lakes, NJ, USA) according to manufacturer’s protocol. Data were analyzed using FlowJo 10 software (FlowJo LLC, Ashland, OR, USA).
Importantly, compound 3 decreased IL-1α, IL-8, and MCP-1 consistently in all tested senescence models. The effect of compound 3 on IL-6 was variable.

C57BL/6 (B6) male mice [5] = test: Blood counts in the tolerability study; type: in vivo; conditions: for MPV: mice, blood day 8, AVG; for Eos / HGB / HOT / MCH / MCHC / MCV / Mon / Neu / PCT / PDW / PLT / RBC / RDW-CV / RDW-SD / WBC / lvm: mouse, in vivo, po
Method: Compounds were dissolved in 20 μL DMSO and completed into 200 μL with corn oil.
During the experiments, mice behavior and possible apparent signs of toxicity were monitored daily. The body weights were determined on days 0, 4, and 8. On day 8, blood (25 μL) was withdrawn using a capillary pipette containing anticoagulant (heparin) from the retroorbital sinus into EDTA-containing tubes. Basic hematological parameters were measured using the Mindray BC-5300 Vet. Mice were then killed, autopsied, and abdominal organs (spleen, liver, and kidney) were removed for visual examination and imaging by a digital camera. Single-cell suspensions from the spleens were prepared by homogenization through a cell strainer (70 μm; BD Biosciences, San Jose, CA, USA). Erythrocytes were osmotically lysed using ammonium chloride-potassium lysis buffer, and the cell suspensions were washed three times in the RPMI-1640 medium and used for further analysis by flow cytometry for selected cell populations.

[6] = all tested senescence models (DIS-BJ, IR-RPE-1, TMZ-U87)

Nc1ccc(C(=O)Nc2cccc(-c3c[nH]c4ncccc34)c2)cc1O [Compound 3, N-(3-(1H-pyrrolo[2,3-b]pyridin-3-yl)phenyl)-4-amino-3-hydroxybenzamide]
histopathology, spleen (C57BL/6 (B6) male mice [1]; mice, 25 mg/kg p.o., HE, 100×): mild extramedullar hematopoiesis | histopathology, kidneys (C57BL/6 (B6) male mice [1]; mice, 25 mg/kg p.o., HE, 200×): narrowing of Bowman’s space (arrow), focal tubular atrophy | histopathology, kidneys (C57BL/6 (B6) male mice [1]; mice, 50 mg/kg p.o., HE, 200×): multifocal mild tubular damage | histopathology, liver (C57BL/6 (B6) male mice [1]; mice, 50 mg/kg p.o., HE, 400×): rare incipient centrilobular necrosis | histopathology, liver (C57BL/6 (B6) male mice [1]; mice, 5, 25, 50 mg/kg p.o., dose-dependent): minimal evidence of damage | histopathology, kidneys (C57BL/6 (B6) male mice [1]; mice, 5, 25, 50 mg/kg p.o., proportional to dose): most pronounced pathological changes | histopathology, spleen (C57BL/6 (B6) male mice [1]; mice, all three doses (5, 25, 50 mg/kg p.o.)): varying degrees of extramedullary haematopoiesis | effect on Thr389 S6K phosphorylation ([2]; BJ cells, 1 and 5 h): inhibitory effect | effect on Thr389 S6K phosphorylation ([2]; DU-145, 1 and 5 h): no effect | effect on Thr389 S6K phosphorylation ([2]; H1299, 1 and 5 h): Marked but transient inhibition | effect on Thr389 S6K phosphorylation ([2]; MDA-MB-231, 1 and 5 h): Marked but transient inhibition | effect on Thr389 S6K phosphorylation ([2]; RPE-1, 1 and 5 h): no effect | effect on Thr389 S6K phosphorylation ([2]; T98, 1 and 5 h): Marked but transient inhibition | effect on Thr389 S6K phosphorylation ([2]; U87, after 1 h, reasonable level also after 5 h): most potent inhibitory effect | effect on p70 S6K phosphorylation ([2]; docetaxel-induced senescent BJ, 1 and 5 h): robust effect | effect on p70 S6K phosphorylation ([2]; ionizing radiation-induced senescent RPE-1, 1 and 5 h): less pronounced effect | concentration from which inhibition of S6K phosphorylation is apparent ([2]; proliferating BJ cells, 0–100 μM, after 5 h-long exposure): 6.25 µM | effect on p70 S6K phosphorylation ([2]; temozolomide-induced senescent U87, 1 and 5 h): less pronounced effect | pKa ([3]; read-out: pKa1): 3.6 ± 0.29 | pKa ([3]; read-out: pKa2): 7.91 ± 0.15 | IL-6 level in conditioned medium ([4]; DIS-BJ senescent cells): apparent decrease | IL-6 level in conditioned medium ([4]; TMZ-U87 senescent cells): apparent decrease | all detectable cytokines (IL-1α, IL-1β, IL-6, IL-8, IL-27, MCP-1, TNFα) ([4]; TMZ-induced U87 senescent cells): suppressed | IL-1α level in conditioned medium [4, 6]: decreased | IL-8 level in conditioned medium [4, 6]: decreased | MCP-1 level in conditioned medium [4, 6]: decreased | MPV (C57BL/6 (B6) male mice [5]; 5 mg/kg p.o. days 0, 3, 5): 5.67 | MPV (C57BL/6 (B6) male mice [5]; 25 mg/kg p.o. days 0, 3, 5): 5.37 | MPV (C57BL/6 (B6) male mice [5]; 50 mg/kg p.o. days 0, 3, 5): 5.20 | Eos (C57BL/6 (B6) male mice [5]; 5 mg/kg): 0.88 | HGB (C57BL/6 (B6) male mice [5]; 5 mg/kg): 131.00 | HOT (C57BL/6 (B6) male mice [5]; 5 mg/kg): 0.44 | MCH (C57BL/6 (B6) male mice [5]; 5 mg/kg): 15.90 | MCHC (C57BL/6 (B6) male mice [5]; 5 mg/kg): 296.33 | MCV (C57BL/6 (B6) male mice [5]; 5 mg/kg): 53.70 | Mon (C57BL/6 (B6) male mice [5]; 5 mg/kg): 0.39 10^9/L | Neu (C57BL/6 (B6) male mice [5]; 5 mg/kg): 1.65 | PCT (C57BL/6 (B6) male mice [5]; 5 mg/kg): 3.88 | PDW (C57BL/6 (B6) male mice [5]; 5 mg/kg): 15.20 | PLT (C57BL/6 (B6) male mice [5]; 5 mg/kg): 677.33 | RBC (C57BL/6 (B6) male mice [5]; 5 mg/kg): 8.28 10^12/L | RDW-CV (C57BL/6 (B6) male mice [5]; 5 mg/kg): 0.14 | RDW-SD (C57BL/6 (B6) male mice [5]; 5 mg/kg): 31.27 | WBC (C57BL/6 (B6) male mice [5]; 5 mg/kg): 12.56 | lvm (C57BL/6 (B6) male mice [5]; 5 mg/kg): 9.60 | Eos (C57BL/6 (B6) male mice [5]; 25 mg/kg): 0.74 | HGB (C57BL/6 (B6) male mice [5]; 25 mg/kg): 136.00 | HOT (C57BL/6 (B6) male mice [5]; 25 mg/kg): 0.46 | MCH (C57BL/6 (B6) male mice [5]; 25 mg/kg): 15.53 | MCHC (C57BL/6 (B6) male mice [5]; 25 mg/kg): 294.00 | MCV (C57BL/6 (B6) male mice [5]; 25 mg/kg): 52.77 | Mon (C57BL/6 (B6) male mice [5]; 25 mg/kg): 0.52 10^9/L | Neu (C57BL/6 (B6) male mice [5]; 25 mg/kg): 1.47 | PCT (C57BL/6 (B6) male mice [5]; 25 mg/kg): 1.77 | PDW (C57BL/6 (B6) male mice [5]; 25 mg/kg): 14.93 | PLT (C57BL/6 (B6) male mice [5]; 25 mg/kg): 330.00 | RBC (C57BL/6 (B6) male mice [5]; 25 mg/kg): 8.76 10^12/L | RDW-CV (C57BL/6 (B6) male mice [5]; 25 mg/kg): 0.15 | RDW-SD (C57BL/6 (B6) male mice [5]; 25 mg/kg): 32.23 | WBC (C57BL/6 (B6) male mice [5]; 25 mg/kg): 11.49 | lvm (C57BL/6 (B6) male mice [5]; 25 mg/kg): 8.71 | Eos (C57BL/6 (B6) male mice [5]; 50 mg/kg): 0.43 | HGB (C57BL/6 (B6) male mice [5]; 50 mg/kg): 150.67 | HOT (C57BL/6 (B6) male mice [5]; 50 mg/kg): 0.52 | MCH (C57BL/6 (B6) male mice [5]; 50 mg/kg): 15.10 | MCHC (C57BL/6 (B6) male mice [5]; 50 mg/kg): 289.33 | MCV (C57BL/6 (B6) male mice [5]; 50 mg/kg): 52.07 | Mon (C57BL/6 (B6) male mice [5]; 50 mg/kg): 0.72 10^9/L | Neu (C57BL/6 (B6) male mice [5]; 50 mg/kg): 0.86 | PCT (C57BL/6 (B6) male mice [5]; 50 mg/kg): 3.92 | PDW (C57BL/6 (B6) male mice [5]; 50 mg/kg): 14.70 | PLT (C57BL/6 (B6) male mice [5]; 50 mg/kg): 751.67 | RBC (C57BL/6 (B6) male mice [5]; 50 mg/kg): 9.99 10^12/L | RDW-CV (C57BL/6 (B6) male mice [5]; 50 mg/kg): 0.13 | RDW-SD (C57BL/6 (B6) male mice [5]; 50 mg/kg): 29.03 | WBC (C57BL/6 (B6) male mice [5]; 50 mg/kg): 8.25 | lvm (C57BL/6 (B6) male mice [5]; 50 mg/kg): 6.23
